In patent US20080261986A1, “PHARMACEUTICAL FORMULATIONS FOR IONTOPHORETIC DELIVERY OF AN ANTI-FUNGAL DRUG” (priority 2007, published 2008):
Counter-ions that a name gives are not always drawn.

Assays:
[1] = Delivery from nail-only and nail and skin applicators, nail on agarose model; type: in vitro ADME; settings: for nail loading range: Coulombic dose range 2-60 mA*min
Source text: In the nail and skin applicator, the drug was delivered to both the nail and the skin (not shown). In the nail and skin applicator, the polyurethane foam and the active electrode (Ag-C) extended past the toe nail and onto agarose to mimic skin delivery. The agarose was covered with fluorinated ethylene propylene (FEP) membrane with uniform 0.5 mm holes distributed 5 mm apart to mimic the semi-restrictive property of the skin. […] The applicator extensions were adhered down to the base of the glass plate where the agarose was placed. The saline presoaked (1 hr) toe nail was placed on the curved agarose gel (1% w/v) with a counter electrode on the bottom of the agarose (standard EKG AgCl electrode with hydrogel, […]). […] Passive delivery was also run for 1 hr without current. […] The amount of drug permeated through the nail and into the agarose was determined by extracting terbinafine using 0.1M HCl and analyzing the samples by HPLC. Additional terbinafine HCl delivery testing using both types of applicators at different Coulombic doses were performed on the nail on agarose model. […] These additional doses, along with the higher 60 mA*min dose, were plotted as terbinafine loading (mg/g) with respect to Coulombic dose (FIG. 9F).

T. rubrum = experiment: Antifungal activity of terbinafine loaded nails, agar diffusion assay; type: cell-based
Procedure: The nail plates loaded with the formulation containing 4% terbinafine HCl, 21% ethanol (95%), 5% Tween-80, 40% glycerin, 0.3% HEC, 0.2% benzoic acid, 0.01% BHT, and 0.01% disodium EDTA (Formulation TPI-DF-507), by passive diffusion (15 or 60 min) or iontophoresis (Coulombic doses of 0.75, 3, 6, and 12 mA min corresponding to 0.25 mA/cm^2 for 15 min, 0.25 mA/cm^2 for 60 min, 0.5 mA/cm^2 for 60 min, and 1 mA/cm^2 for 60 min, respectively), were tested for antifungal activity. The inoculum, T. rubrum, (ATCC10218) was prepared in sterile saline from 7-10 days old cultures on PDA slants at 30° C. Terbinafine HCl loaded nail pieces (2˜3 mm squares) were placed on the Sabouraud Dextrose Agar plates (Oxoid, Napean, Ontario, Canada) inoculated with T. rubrum. The diameter (mm) of the zones of inhibition were measured using a dial caliper after 4 days of incubation at 30° C. and were compared with the standards. The zone of inhibition for the standards (known drug concentrations: 0.1, 0.2, 0.4, 0.5, 0.6, 0.8, 1.0. 2.0 and 3.0 μg of terbinafine HCl) were determined similarly by loading the drug on 6 mm paper blank disks (Becton Dickinson, Sparks, Md.). Subsequently, the terbinafine HCl standard curve generated was used to calculate the drug dosage out of the nail. […] Based on the passaging study, duration of release of active terbinafine HCl was determined.

[2] = Approximate visual solubility in receiver fluids; type: physicochemical; settings: aqueous with cosolvent or surfactant or cyclodextrin, Approximate visual solubility
Procedure: The visual solubility of each receiver fluid shown in Table 3 below was initially tested for ketoconazole (BUFA B.V.) and ciclopirox (PCAS Finland Oy). Additional solubility testing was then conducted for terbinafine hydrochloride (QueMaCo Ltd.), amorolfine hydrochloride (Inter-Chemical Ltd.) and itraconazole EP (Shamrock, UK) and the results are shown in Table 3.
The solubility of terbinafine hydrochloride, fluconazole, itraconazole and amorolfine hydrochloride was determined in PBS and 5% Tween 80 and the results are summarized in Table 4.

## CN(C/C=C/C#CC(C)(C)C)Cc1cccc2ccccc12 [terbinafine HCl, (E)-N-(6,6-dimethyl-2-hepten-4-ynyl)-N-methyl-1-naphthylmethamine hydrochloride]
[1]; 1 h, 4 %
  share of the permeated drug that passed through the nail: 8%
  share of the total permeated drug which passed through areas surrounding the nail: Approximately 92%
[1]; nail and skin applicator
  nail loading range: 20 to 90 µg/g
[1]; nail only applicator
  nail loading range: 124 to 588 µg/g
T. rubrum; Formulation TPI-DF-507, 4 days at 30° C.
  zones of inhibition, iontophoresis loaded nails versus passive delivery controls: Significantly larger zones of inhibition
T. rubrum; serial passaging to freshly inoculated plates, 0.5 mA/cm^2 for 60 min
  Duration of terbinafine HCl release from nail samples: at least 36 days
[2]
  solubility: > 5000 µg/mL
